One experiment has as its system AsPC-1 cells. The experiment in a line: AsPC-1 CTG Assay (CellTiter-Glo cell viability). The class given is cell-based, human. The following applies: AsPC-1, 72 h, first value of the cell, read-out: G12D/C/V Cell Proliferation CTG (72 h) AsPC-1. A digest of the protocol:
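Human pancreatic AsPC-1 or colon SW620 cells in RPMI 1640 with 10% FBS, seeded overnight, then exposed to serially diluted compound for 72 h at 37 °C. CellTiter-Glo luminescence normalized to DMSO control; IC50 from a 4-parameter logistic model.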
(In ATP-based viability assays light output follows the ATP content of the culture.)

The target in experiment [1] is GDP-bound KRAS protein (aa 1-169), containing both G12D and C118A amino acid substitutions (Homo sapiens (Human), UniProt P01116, C118A/G12D). The experiment in a line: KRAS G12D Coupled Nucleotide Exchange Assay. The class given is biochemical. The following applies: read-out: KRAS G12D Coupled Exchange IC50.
Sequence of GDP-bound KRAS protein (aa 1-169), containing both G12D and C118A amino acid substitutions (P01116 other isoform, or with tags, fused parts or gaps G12D/C118A): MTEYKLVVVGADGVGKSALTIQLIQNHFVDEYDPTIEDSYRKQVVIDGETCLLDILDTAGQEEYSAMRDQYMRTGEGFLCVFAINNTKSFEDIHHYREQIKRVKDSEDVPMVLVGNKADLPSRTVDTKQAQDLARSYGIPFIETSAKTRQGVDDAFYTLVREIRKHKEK
Experiment [2] relates to Phosphorylation of ERK1/2 in AsPC-1 cells. The experiment in a line: Phospho-ERK1/2 MSD Assay. The class given is cell-based, human. The following applies: read-out: 2 h p-ERK (AsPC-1 cells), IC50. The method, boiled down: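 Read-out: MSD electrochemiluminescent detection of phosphorylated ERK1/2 in whole-cell lysates, fitted to a 4-parameter logistic curve for IC50. Prior to lysis, AsPC-1 cells (25,000 per well) received a 2 h compound dose-response at 37 °C.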

Experiment [3] addresses His-tagged KRAS G12D protein (Homo sapiens (Human), UniProt P01116, G12D). The experiment in a line: KRAS G12D TR-FRET Assay. The class given is binding. Particulars: read-out: KRAS G12D Binding IC50. The method, boiled down:
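His-tagged KRAS G12D (diluted to 20 nM in pH 7.4 HEPES buffer with 10 mM MgCl2 and 10 μM GDP) was preincubated with titrated compound for 30 min at room temperature. Biotinylated KRPep-2d peptide (diluted to 20 nM) was then added for 1 h, and displacement was monitored by TR-FRET.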

The next experiment has as its system MIA PaCa-2 cells. Nature of the experiment: MIA PaCa-2 CTG Assay (CellTiter-Glo cell viability). Particulars: Mia PaCa-2, 72 h, second value of the cell, read-out: G12D/C/V Cell Proliferation CTG (72 h) Mia PaCa-2. Type of experiment: cell-based, human. The method, boiled down:
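Human pancreatic carcinoma cells in RPMI 1640 with 10% FBS, seeded at 1.67E+04 cells/mL and left overnight, were treated with serially diluted compound for 72 h at 37° C, 5% CO2. Viability was read by CellTiter-Glo luminescence normalized to DMSO; IC50 came from a 4-parameter logistic fit.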

Where two headings read alike, the source gives them in different places.

Sequence of His-tagged KRAS G12D protein (P01116 other isoform, or with tags, fused parts or gaps G12D): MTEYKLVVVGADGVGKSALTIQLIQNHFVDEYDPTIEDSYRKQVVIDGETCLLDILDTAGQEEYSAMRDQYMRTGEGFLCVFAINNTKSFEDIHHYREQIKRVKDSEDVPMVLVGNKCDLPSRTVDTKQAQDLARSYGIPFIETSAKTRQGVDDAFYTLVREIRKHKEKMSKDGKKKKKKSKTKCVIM

Take `Fc1c2ncc3c(nc(OC[C@@]45CCCN4C[C@H](F)C5)nc13)N1CCC[C@H](C1)c1cnn(n1)CCCc1c(Cl)cc3[nH]ncc3c1-2` [Example 259]: the IC50 in the experiment with AsPC-1 cells (Homo sapiens, ASPC1, 72 h) worked out at 215 nM; in experiment [1], 3 nM; in experiment [2] (Homo sapiens, ASPC1, 2 h) it was 25.3 nM; in experiment [3] it was 4 nM; in the experiment with MIA PaCa-2 cells (Homo sapiens), 126 nM.

With `CN1CCC[C@H]1COc1nc2c3cnc(c(F)c3n1)-c1c(c(Cl)cc3[nH]ncc13)CCCOCC(=O)N1CC[C@@H]3CCN2C[C@@H]31` [Example 267, (29S,33R)-18-chloro-34-fluoro-4-(((2S)-1-methyl-2-pyrrolidinyl)methoxy)-23-oxa-1,3,5,9,14,15,26-heptaazaheptacyclo[24.5.2.1~6,10~.0~2,7~.0~11,19~.0~12,16~.0~29,33~]tetratriaconta-2,4,6(34),7,9,11,13,16,18-nonaen-25-one], the IC50 in the experiment on AsPC-1 cells (Homo sapiens, ASPC1, 72 h) stood at 80 nM; in experiment [1], 2 nM; in experiment [2] (Homo sapiens, ASPC1, 2 h), 33.5 nM; in experiment [3], 4 nM; in the experiment with MIA PaCa-2 cells (Homo sapiens), 121 nM.

As to `O=C1COCCc2c(Cl)cc3[nH]ncc3c2-c2ncc3c(nc(OC[C@@]45CCCN4C[C@H](F)C5)nc3c2F)N2CC[C@H]3CCN1[C@H]3C2` [Example 270, (28S,32R)-18-chloro-33-fluoro-4-(((2R,7aS)-2-fluorotetrahydro-1H-pyrrolo[1,2-a]pyrrol-7a(5H)-yl)methoxy)-22-oxa-1,3,5,9,14,15,25-heptaazaheptacyclo[23.5.2.1~6, 10~.0~2,7~.0~11,19~.0~12,16~.0~28,32~]tritriaconta-2,4,6,8,10(33),11,13,16,18-nonaen-24-one], the IC50 was 606 nM in the experiment with AsPC-1 cells; 2 nM in experiment [1]; 123 nM in experiment [2] (2 h); 7 nM in experiment [3]; 675 nM in the experiment on MIA PaCa-2 cells.

As to `Cc1cc2[nH]ncc2c2c1CCCOCC(=O)N1CC[C@@H]3CCN(C[C@@H]31)c1nc(OC[C@@]34CCCN3C[C@H](F)C4)nc3c(F)c-2ncc13` [Example 277, (29S,33R)-34-fluoro-4-(((2R,7aS)-2-fluorotetrahydro-1H-pyrrolo[1,2-a]pyrrol-7a(5H)-yl)methoxy)-18-methyl-23-oxa-1,3,5,9,14,15,26-heptaazaheptacyclo[24.5.2.1~6,10~.0~2,7~.0~11,19~.0~12,16~.0~29,33~]tetratriaconta-2,4,6,8,10(34),11,13,16,18-nonaen-25-one], the IC50 in the experiment with AsPC-1 cells (Homo sapiens, ASPC1, 72 h) was found to be 88 nM; in experiment [1], 2 nM; in experiment [2] (Homo sapiens, ASPC1, 2 h), 11 nM; in experiment [3], 3 nM; in the experiment with MIA PaCa-2 cells (Homo sapiens), 60 nM.

Take `C[C@@]12CCCCN(C1)c1nc(OC[C@@]34CCCN3C[C@H](F)C4)nc3c(F)c(ncc13)-c1c(c(Cl)cc3[nH]ncc13)CCCOC(=O)N2` [Example 290, (26R)-18-chloro-32-fluoro-4-(((2R,7aS)-2-fluorotetrahydro-1H-pyrrolo[1,2-a]pyrrol-7a(5H)-yl)methoxy)-26-methyl-23-oxa-1,3,5,9,14,15,25-heptaazahexacyclo[24.4.1.1~6,10~.0~2,7~.0~11,19~.0~12,16~]dotriaconta-2,4,6(32),7,9,11,13,16,18-nonaen-24-one]: the IC50 worked out at 36 nM in the experiment on AsPC-1 cells (Homo sapiens, ASPC1, 72 h); 2 nM in experiment [1]; 3.1 nM in experiment [2] (Homo sapiens, ASPC1, 2 h); 4 nM in experiment [3]; 32 nM in the experiment on MIA PaCa-2 cells (Homo sapiens).

As to `Fc1c2ncc3c(nc(OC[C@@]45CCCN4C[C@H](F)C5)nc13)N1CCCC[C@H](C1)c1cnn(n1)CCCc1c(Cl)cc3[nH]ncc3c1-2` [Example 296, (1R)-10-chloro-33-fluoro-24-(((2R,7aS)-2-fluorotetrahydro-1H-pyrrolo[1,2-a]pyrrol-7a(5H)-yl)methoxy)-4,5,13,14,19,23,25,27,34-nonaazaheptacyclo[25.4.1.1~2,5~.1~18,22~.0~9,17~.0~12,16~.0~21,26~]tetratriaconta-2(34),3,9,11,14,16,18(33),19,21,23,25-undecaene], the IC50 in the experiment on AsPC-1 cells (Homo sapiens, ASPC1, 72 h) stood at 150 nM; in experiment [1] it was 4 nM; in experiment [2] (Homo sapiens, ASPC1, 2 h) it was 12.6 nM; in experiment [3] it was 4 nM; in the experiment with MIA PaCa-2 cells (Homo sapiens), 53 nM.

Consider `O=C1OCCCc2c(Cl)cc3[nH]ncc3c2-c2cc3nc(OC[C@@]45CCCN4C[C@H](F)C5)nc(c3cn2)N2CCOC[C@H](C2)O1` [Example 303, (26S)-18-chloro-4-(((2R,7aS)-2-fluorotetrahydro-1H-pyrrolo[1,2-a]pyrrol-7a(5H)-yl)methoxy)-23,25,28-trioxa-1,3,5,9,14,15-hexaazahexacyclo[24.4.1.1~6,10~.0~2,7~.0~11,19~.0~12,16~]dotriaconta-2,4,6,8,10(32),11,13,16,18-nonaen-24-one], for which the IC50 in the experiment on AsPC-1 cells (Homo sapiens, ASPC1, 72 h) came out at 155 nM; in experiment [1], 2 nM; in experiment [2] (Homo sapiens, ASPC1, 2 h), 10 nM; in experiment [3], 4 nM; in the experiment with MIA PaCa-2 cells (Homo sapiens), 75 nM.

As for `CN(C)CC1(COc2nc3c4cc(F)c(c(F)c4n2)-c2c(c(Cl)cc4[nH]ncc24)CCCOC(=O)O[C@@H]2COCCN3C2)CC1` [Example 305, p-(26S)-18-chloro-4-((1-((dimethylamino)methyl)cyclopropyl)methoxy)-9,32-difluoro-23,25,28-trioxa-1,3,5,14,15-pentaazahexacyclo[24.4.1.1~6,10~.0~2,7~.0~11,19~.0~12,16~]dotriaconta-2,4,6,8,10(32),11,13,16,18-nonaen-24-one], the IC50 in the experiment with AsPC-1 cells (Homo sapiens, ASPC1, 72 h) is 61 nM; in experiment [1], 3 nM; in experiment [2] (Homo sapiens, ASPC1, 2 h), 17.7 nM; in experiment [3], 4 nM; in the experiment with MIA PaCa-2 cells (Homo sapiens), 134 nM.

In the case of `CN1C[C@H](F)C[C@H]1COc1nc2c3cnc(c(F)c3n1)-c1c(c(Cl)cc3[nH]ncc13)CCCOC(=O)O[C@]1(C)COCCN2C1` [Example 318, (26S)-18-chloro-32-fluoro-4-(((2S,4R)-4-fluoro-1-methyl-2-pyrrolidinyl)methoxy)-26-methyl-23,25,28-trioxa-1,3,5,9,14,15-hexaazahexacyclo[24.4.1.1~6,10~.0~2,7~.0~11,19~.0~12,16~]dotriaconta-2,4,6,8,10(32),11,13,16,18-nonaen-24-one], the IC50 in the experiment on AsPC-1 cells (Homo sapiens, ASPC1, 72 h) stood at 183 nM; in experiment [1], 3 nM; in experiment [2] (Homo sapiens, ASPC1, 2 h) it was 35.1 nM; in experiment [3] it was 5 nM; with MIA PaCa-2 cells (Homo sapiens), 33 nM.

Take `CN1C[C@H](F)C[C@H]1COc1nc2c3cnc(c(F)c3n1)-c1c(c(Cl)cc3[nH]ncc13)CCOC(=O)O[C@H]1C[C@@]3(CCCN2C3)C1` [Example 320, (1S,3R)-10-chloro-32-fluoro-24-(((2S,4R)-4-fluoro-1-methyl-2-pyrrolidinyl)methoxy)-4,6-dioxa-13,14,19,23,25,27-hexaazaheptacyclo[25.3.1.1~1,3~.1~18,22~.0~9,17~.0~12,16~.0~21,26~]tritriaconta-9,11,14,16,18(32),19,21,23,25-nonaen-5-one]: the IC50 in the experiment on AsPC-1 cells (Homo sapiens, ASPC1, 72 h) was 137 nM; in experiment [1], 3 nM; in experiment [2] (Homo sapiens, ASPC1, 2 h) it was 13.8 nM; in experiment [3], 4 nM; in the experiment on MIA PaCa-2 cells (Homo sapiens) it was 80 nM.

Turning to `Cc1cc2[nH]ncc2c2c1CCOC(=O)O[C@H]1C[C@@]3(CCCN(C3)c3nc(OC[C@@H]4C[C@@H](F)CN4C)nc4c(F)c-2ncc34)C1` [Example 321, (1S,3R)-32-fluoro-24-(((2S,4R)-4-fluoro-1-methyl-2-pyrrolidinyl)methoxy)-10-methyl-4,6-dioxa-13,14,19,23,25,27-hexaazaheptacyclo[25.3.1.1~1,3~.1~18,22~.0~9,17~.0~12,16~.0~21,26~]tritriaconta-9,11,14,16,18(32),19,21,23,25-nonaen-5-one], the IC50 with AsPC-1 cells (Homo sapiens, ASPC1, 72 h) turned out to be 186 nM; in experiment [1], 2 nM; in experiment [2] (Homo sapiens, ASPC1, 2 h) it was 25 nM; in experiment [3], 5 nM; with MIA PaCa-2 cells (Homo sapiens) it was 162 nM.

As for `CN1[C@H](COc2nc3c4cnc(c(F)c4n2)-c2c(c(Cl)cc4[nH]ncc24)CCCOC(=O)O[C@@H]2COCCN3C2)C[C@H]2C[C@H]21` [Example 329, (26S)-18-chloro-32-fluoro-4-(((1R,3S,5R)-2-methyl-2-azabicyclo[3.1.0]hexan-3-yl)methoxy)-23,25,28-trioxa-1,3,5,9,14,15-hexaazahexacyclo[24.4.1.1~6,10~.0~2,7~.0~11,19~.0~12,16~]dotriaconta-2,4,6,8,10(32),11,13,16,18-nonaen-24-one], the IC50 in the experiment with AsPC-1 cells (Homo sapiens, ASPC1, 72 h) worked out at 402 nM; in experiment [1] it was 7 nM; in experiment [2] (Homo sapiens, ASPC1, 2 h) it was 206 nM; in experiment [3], 14 nM; in the experiment with MIA PaCa-2 cells (Homo sapiens) it was 530 nM.

The values above are taken from patent publication US20240294551A1 (AMGEN INC., priority 2022, published 2024).
